Laboratory results from US7928140B2, “Benzothiazole PI3 kinase modulators for cancer treatment” (Amgen Inc., priority 2007, dated 2011).

How the values were obtained:
[1] = target: T1, PI3K β (Homo sapiens, UniProt P42338); assay: In vitro PI3 kinase enzyme assay (beta), ATP loss, bioluminescence; format: biochemical; conditions: read-out: PI3Kβ ATP loss IC50;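 further: purified p110β/p85 heterodimer with PtdIns(4,5)P2 as acceptor, incubated at room temperature, leftover ATP read by luminescence, inhibition scaled to compound-free wells with and without enzyme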
T1 construct: Full length p110 subunits of PI3K α, β and δ, N-terminally labeled with polyHis tag; polyHis (N); made in house; host or cells: Sf9 insect cells (baculovirus)
T1 sequence (P42338 whole entry): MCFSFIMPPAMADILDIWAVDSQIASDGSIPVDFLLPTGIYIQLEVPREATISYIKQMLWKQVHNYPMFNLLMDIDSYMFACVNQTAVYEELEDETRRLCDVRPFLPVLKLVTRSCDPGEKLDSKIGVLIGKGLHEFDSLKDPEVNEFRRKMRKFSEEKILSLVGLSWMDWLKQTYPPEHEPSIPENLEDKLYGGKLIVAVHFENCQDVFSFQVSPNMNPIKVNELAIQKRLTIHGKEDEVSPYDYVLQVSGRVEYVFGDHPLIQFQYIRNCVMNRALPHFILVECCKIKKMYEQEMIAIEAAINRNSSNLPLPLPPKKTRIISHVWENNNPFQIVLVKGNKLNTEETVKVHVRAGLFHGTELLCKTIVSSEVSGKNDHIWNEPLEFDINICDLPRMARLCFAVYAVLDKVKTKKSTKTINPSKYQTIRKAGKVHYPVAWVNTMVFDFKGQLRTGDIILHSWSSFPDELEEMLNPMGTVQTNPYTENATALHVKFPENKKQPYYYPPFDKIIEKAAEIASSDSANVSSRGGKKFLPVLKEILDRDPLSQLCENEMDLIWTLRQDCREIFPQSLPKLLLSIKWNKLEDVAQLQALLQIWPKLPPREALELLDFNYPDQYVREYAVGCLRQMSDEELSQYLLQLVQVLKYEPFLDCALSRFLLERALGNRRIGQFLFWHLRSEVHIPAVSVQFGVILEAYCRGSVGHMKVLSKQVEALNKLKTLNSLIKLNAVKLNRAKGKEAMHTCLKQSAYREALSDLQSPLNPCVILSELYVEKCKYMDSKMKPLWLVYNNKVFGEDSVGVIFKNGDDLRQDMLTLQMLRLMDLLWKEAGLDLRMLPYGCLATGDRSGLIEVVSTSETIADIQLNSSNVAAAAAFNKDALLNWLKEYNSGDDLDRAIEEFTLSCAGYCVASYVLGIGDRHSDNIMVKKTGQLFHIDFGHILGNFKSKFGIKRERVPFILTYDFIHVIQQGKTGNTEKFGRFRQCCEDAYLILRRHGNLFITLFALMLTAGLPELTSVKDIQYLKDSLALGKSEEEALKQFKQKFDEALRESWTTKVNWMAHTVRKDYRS
T1 sequence (P27986 whole entry partner): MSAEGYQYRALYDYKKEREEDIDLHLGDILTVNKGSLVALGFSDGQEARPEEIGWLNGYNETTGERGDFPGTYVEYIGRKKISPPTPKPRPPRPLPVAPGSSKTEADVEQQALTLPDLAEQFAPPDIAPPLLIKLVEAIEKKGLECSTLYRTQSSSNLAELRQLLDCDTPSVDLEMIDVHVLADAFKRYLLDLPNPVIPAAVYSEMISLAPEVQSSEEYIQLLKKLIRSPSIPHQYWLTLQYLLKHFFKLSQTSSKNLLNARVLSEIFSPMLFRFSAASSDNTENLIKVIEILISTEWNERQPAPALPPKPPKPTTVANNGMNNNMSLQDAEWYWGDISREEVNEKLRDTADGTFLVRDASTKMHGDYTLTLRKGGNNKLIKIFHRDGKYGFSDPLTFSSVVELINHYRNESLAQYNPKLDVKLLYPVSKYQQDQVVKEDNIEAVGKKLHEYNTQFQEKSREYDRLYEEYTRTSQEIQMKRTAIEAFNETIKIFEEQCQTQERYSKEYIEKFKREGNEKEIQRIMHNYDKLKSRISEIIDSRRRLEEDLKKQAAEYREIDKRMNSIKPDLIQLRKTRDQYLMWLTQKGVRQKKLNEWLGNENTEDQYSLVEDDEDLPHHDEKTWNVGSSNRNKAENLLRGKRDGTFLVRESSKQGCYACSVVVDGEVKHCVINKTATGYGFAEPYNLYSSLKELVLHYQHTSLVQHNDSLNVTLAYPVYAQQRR

[2] = system: phosphorylation of Serine 473 in Akt, HCT 116 human colon carcinoma cells; assay: Cell-based phospho-AKT Ser473 assay (MSD sandwich immunoassay, IGF-1 stimulated); conditions: Homo sapiens, HCT-116, HCT 116 cells; read-out: HCT 116 pAKT IC50
Protocol: This assay determines the ability of test compounds to inhibit the phosphorylation of […] in Akt using a MSD based sandwich immunoassay (Meso Scale Detection, catalogue # N411CAB-1). […] Prior to the assay cells were detached from the culture flask with trypsin, and re-suspended in complete media to give a final concentration of 1.6×10^5 cells per ml. Aliquots (100 μl) of the HCT116 cell suspension were seeded into each well of a 96 well tissue culture plate (Corning Incorporated COSTAR, catalogue#3595) to give a final density of 16,000 cells per well. Cells were then incubated overnight at 37° C. The following day the cells were treated with serially diluted test compounds and incubated for 2 hours at 37° C. […] As a maximum response control, wells contained 0.5% DMSO in place of test compound. The plates were mixed at 700 rpm for 2 min to ensure even distribution of the test compound and incubated for 2 hours at 37° C. Cells were then stimulated with insulin-like growth factor 1 (Sigma, product #13769) at final concentration of 100 ng/ml for 15 minutes at 37° C. The media was then removed and the cells treated with 80 μl cell-lysis buffer (MSD) containing a cocktail of protease and phosphatase inhibitors for one hour at 4° C. […] The detection antibody was removed and plates were then washed four times with 200 μl per well of Tris wash buffer. An aliquot of 150 μl of diluted MSD read buffer was then applied to each well, and the electrochemiluminescent signal was measured using a MSD SECTORTM plate reader. This instrument measures the intensity of emitted light to determine a quantitative measure of phosphorylated Akt in each well. The dose-response data obtained with each compound were analyzed and the IC50 inhibition of Akt phosphorylation at Ser473 calculated.

[3] = target: T2, PI3K α (Homo sapiens, UniProt P42336); assay: In vitro PI3 kinase enzyme assay (alpha), ATP loss, bioluminescence; format: biochemical; conditions: read-out: PI3Kα ATP loss IC50;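 further: purified p110α/p85 heterodimer acting on PtdIns(4,5)P2 at room temperature, remaining ATP read by luminescence, inhibition scaled between compound-free wells with and without enzyme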
T2 construct: Full length p110 subunits of PI3K α, β and δ, N-terminally labeled with polyHis tag; polyHis (N); made in house; host or cells: Sf9 insect cells (baculovirus)
T2 sequence (P42336 whole entry, species assumed): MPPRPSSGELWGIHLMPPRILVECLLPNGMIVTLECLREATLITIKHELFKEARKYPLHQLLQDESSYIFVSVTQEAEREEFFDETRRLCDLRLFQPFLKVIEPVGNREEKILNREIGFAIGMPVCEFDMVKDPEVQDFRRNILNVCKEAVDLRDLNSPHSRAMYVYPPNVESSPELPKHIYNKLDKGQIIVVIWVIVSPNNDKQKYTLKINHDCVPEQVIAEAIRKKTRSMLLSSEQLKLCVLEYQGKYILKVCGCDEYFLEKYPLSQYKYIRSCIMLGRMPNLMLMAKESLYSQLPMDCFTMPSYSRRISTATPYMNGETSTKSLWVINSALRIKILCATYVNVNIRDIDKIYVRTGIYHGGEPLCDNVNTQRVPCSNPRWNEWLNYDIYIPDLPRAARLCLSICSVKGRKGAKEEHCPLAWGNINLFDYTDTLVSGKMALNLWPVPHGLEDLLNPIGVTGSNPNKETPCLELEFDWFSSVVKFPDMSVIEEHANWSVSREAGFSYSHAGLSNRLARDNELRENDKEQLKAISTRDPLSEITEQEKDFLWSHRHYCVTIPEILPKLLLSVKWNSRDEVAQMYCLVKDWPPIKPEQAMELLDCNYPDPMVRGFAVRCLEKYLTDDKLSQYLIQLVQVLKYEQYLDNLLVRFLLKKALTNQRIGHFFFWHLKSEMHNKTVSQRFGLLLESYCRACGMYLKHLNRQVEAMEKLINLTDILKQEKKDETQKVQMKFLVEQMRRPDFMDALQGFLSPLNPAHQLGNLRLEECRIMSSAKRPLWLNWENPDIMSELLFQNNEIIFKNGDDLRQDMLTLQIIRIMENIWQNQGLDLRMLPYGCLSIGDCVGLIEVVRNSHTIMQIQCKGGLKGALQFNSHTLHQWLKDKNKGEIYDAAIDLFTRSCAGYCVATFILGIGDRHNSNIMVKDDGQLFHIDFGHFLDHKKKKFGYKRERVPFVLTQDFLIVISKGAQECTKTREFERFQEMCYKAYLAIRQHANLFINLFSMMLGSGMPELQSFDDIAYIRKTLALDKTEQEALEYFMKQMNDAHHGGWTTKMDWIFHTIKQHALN
T2 sequence (P27986 whole entry partner, species assumed): as the sequence (P27986 whole entry partner) above

| IC50 [1] [nM] | IC50 [2] [nM] | IC50 [3] [nM] | Compound |
| --- | --- | --- | --- |
| 3960 | 3930 |  | CC(=O)Nc1nc2ccc(-c3ccnc(OCc4cccc(F)c4)n3)cc2s1 [Example 12, N-(6-(2-((3-fluorobenzyl)oxy)-4-pyrimidinyl)-1,3-benzothiazol-2-yl)acetamide] |
| 184 | 670 |  | CC(=O)Nc1nc2ccc(-c3ccnc(SCc4ccccc4)n3)cc2s1 [Example 19, N-(6-(2-(benzylsulfanyl)-4-pyrimidinyl)-1,3-benzothiazol-2-yl)acetamide] |
| 1090 | 2160 |  | CC(=O)Nc1nc2ccc(-c3ccnc(Sc4ccccc4C)n3)cc2s1 [Example 34, N-(6-(2-((2-methylphenyl)sulfanyl)-4-pyrimidinyl)-1,3-benzothiazol-2-yl)acetamide] |
| 7910 | > 40000 |  | CC(=O)Nc1nc2ccc(-c3ccnc(OCc4ccc(F)cc4)n3)cc2s1 [Example 39, N-(6-(2-((4-fluorobenzyl)oxy)-4-pyrimidinyl)-1,3-benzothiazol-2-yl)acetamide] |
| 1180 | 1050 |  | CSc1nccc(-c2ccc3nc(NC(C)=O)sc3c2)n1 [Example 50, N-(6-(2-(methylsulfanyl)-4-pyrimidinyl)-1,3-benzothiazol-2-yl)acetamide] |
| 202 | 85.9 |  | CC(=O)Nc1nc2ccc(-c3cccc(N(C)S(=O)(=O)c4ccc(C)cc4)n3)cc2s1 [Example 74, N-(6-(6-(N,4-Dimethylphenylsulfonamido)pyridin-2-yl)benzo[d]thiazol-2-yl)acetamide] |
| 67.2 | 428 |  | COc1ccc(S(=O)(=O)Nc2nccc(-c3ccc4nc(NC(C)=O)sc4c3)n2)cc1 [Example 78, N-(6-(2-(((4-methoxyphenyl)sulfonyl)amino)-4-pyrimidinyl)-1,3-benzothiazol-2-yl)acetamide] |
| 405 | 3220 |  | CC(=O)Nc1nc2ccc(-c3ccnc(NS(=O)(=O)c4ccc(F)cc4)n3)cc2s1 [Example 80, N-(6-(2-(((4-fluorophenyl)sulfonyl)amino)-4-pyrimidinyl)-1,3-benzothiazol-2-yl)acetamide] |
| 103 | 4950 |  | CC(=O)Nc1nc2ccc(-c3ccnc(NS(=O)(=O)c4ccccc4F)n3)cc2s1 [Example 81, N-(6-(2-(((2-fluorophenyl)sulfonyl)amino)-4-pyrimidinyl)-1,3-benzothiazol-2-yl)acetamide] |
| 304 | 3900 |  | CC(=O)Nc1nc2ccc(-c3ccnc(NS(=O)(=O)c4cccc(F)c4)n3)cc2s1 [Example 82, N-(6-(2-(((3-fluorophenyl)sulfonyl)amino)-4-pyrimidinyl)-1,3-benzothiazol-2-yl)acetamide] |
| 442 | 692 |  | CCN(c1nccc(-c2ccc3nc(NC(C)=O)sc3c2)n1)S(=O)(=O)c1ccc(OC)cc1 [Example 89, N-(6-(2-(N-Ethyl-4-methoxyphenylsulfonamido)pyrimidin-4-yl)benzo[d]thiazol-2-yl)acetamide] |
| 310 | 888 |  | CC(=O)Nc1nc2ccc(-c3ccnc(N(C)S(=O)(=O)c4ccccc4F)n3)cc2s1 [Example 92, N-(6-(2-(2-Fluoro-N-methylphenylsulfonamido)pyrimidin-4-yl)benzo[d]thiazol-2-yl)acetamide] |
| 120 | 1840 |  | CC(=O)Nc1nc2ccc(-c3ccnc(Sc4cccc(F)c4)n3)cc2s1 [Example 109, N-(6-(2-((3-fluorophenyl)sulfanyl)-4-pyrimidinyl)-1,3-benzothiazol-2-yl)acetamide] |
| 12 | 9.3 |  | COc1ccc(S(=O)(=O)Nc2cc(-c3ccc4nc(NC(C)=O)sc4c3)cnc2C)cc1 [Example 116, N-(6-(5-(((4-methoxyphenyl)sulfonyl)amino)-6-methyl-3-pyridinyl)-1,3-benzothiazol-2-yl)acetamide] |
| 17.9 | 147 |  | COc1ccc(S(=O)(=O)Nc2cncc(-c3ccc4nc(NC(C)=O)sc4c3)n2)cc1 [Example 118, N-(6-(6-(((4-methoxyphenyl)sulfonyl)amino)-2-pyrazinyl)-1,3-benzothiazol-2-yl)acetamide] |
|  | 10.4 |  | CC(=O)Nc1nc2ccc(-c3cnc(Cl)c(NS(=O)(=O)c4ccc(F)cc4)c3)cc2s1 [Example 162, N-(6-(6-Chloro-5-(4-fluorophenylsulfonamido)pyridin-3-yl)benzo[d]thiazol-2-yl)acetamide] |
| 6.9 | 7 |  | CC(=O)Nc1nc2ccc(-c3cnc(Cl)c(NS(=O)(=O)c4cccc(C(F)(F)F)c4)c3)cc2s1 [Example 172, N-(6-(6-chloro-5-(3-(trifluoromethyl)phenylsulfonamido)pyridin-3-yl)benzo[d]thiazol-2-yl)acetamide] |
| 6.9 | 5.1 |  | CC(=O)Nc1nc2ccc(-c3cnc(Cl)c(NS(=O)(=O)c4cccc(C(C)(C)C)c4)c3)cc2s1 [Example 173, N-(6-(5-(3-tert-butylphenylsulfonamido)-6-chloropyridin-3-yl)benzo[d]thiazol-2-yl)acetamide] |
| 8.7 | 12.6 |  | CC(=O)Nc1nc2ccc(-c3cnc(Cl)c(NS(=O)(=O)c4ccc(Cl)cc4)c3)cc2s1 [Example 180, N-(6-(6-chloro-5-(4-chlorophenylsulfonamido)pyridin-3-yl)benzo[d]thiazol-2-yl)acetamide] |
| 14.5 | 10.4 |  | CC(=O)Nc1nc2ccc(-c3cnc(Cl)c(NS(=O)(=O)c4ccccc4)c3)cc2s1 [Example 181, N-(6-(6-chloro-5-(phenylsulfonamido)pyridin-3-yl)benzo[d]thiazol-2-yl)acetamide] |
|  | 362 |  | CC(=O)Nc1nc2ccc(-c3cncc(NC(C)(C)C)n3)cc2s1 [Example 227, N-(6-(6-(tert-butylamino)pyrazin-2-yl)benzo[d]thiazol-2-yl)acetamide] |
|  | > 5000 |  | CC(=O)Nc1nc2ccc(-c3cncc(OC[C@H]4CCC(=O)N4)c3)cc2s1 [Example 294, N-(6-(5-(((R)-5-oxopyrrolidin-2-yl)methoxy)pyridin-3-yl)benzo[d]thiazol-2-yl)acetamide] |
|  | 418 |  | CC(=O)Nc1nc2ccc(-c3cncc(O)c3)cc2s1 [Example 296, N-(6-(5-hydroxypyridin-3-yl)benzo[d]thiazol-2-yl)acetamide] |
|  | 1190 |  | CC(=O)Nc1nc2ccc(-c3ccc(Cl)nc3)cc2s1 [Example 297, N-(6-(6-chloropyridin-3-yl)benzo[d]thiazol-2-yl)acetamide] |
|  | 1830 |  | COCC(=O)NCCOc1cncc(-c2ccc3nc(NC(C)=O)sc3c2)c1 [Example 298, N-(2-(5-(2-(N-actyl)aminobenzo[d]thiazol-6-yl)pyridin-3-yloxy)ethyl)-2-methoxyacetamide] |
| 384 |  | 222 | COc1ccc(S(=O)(=O)Nc2cc(-c3ccc4nc(SC)sc4c3)cnc2Cl)cc1 [Example 327, N-(2-chloro-5-(2-(methylsulfanyl)-1,3-benzothiazol-6-yl)-3-pyridinyl)-4-methoxybenzenesulfonamide] |
| 1350 |  | 116 | Oc1cc(-c2ccc3ncsc3c2)cnc1Cl [Example 334, 5-(1,3-benzothiazol-6-yl)-2-chloro-3-pyridinol] |
| 13300 |  | 2550 | CC(=O)c1cncc(-c2ccc3ncsc3c2)c1 [Example 336, 1-(5-(1,3-benzothiazol-6-yl)-3-pyridinyl)ethanone] |
| > 40000 |  | 21800 | Cc1nc2ccc(-c3cc(O)c(C(F)(F)F)nc3F)cc2s1 [Example 341, 6-fluoro-5-(2-methyl-1,3-benzothiazol-6-yl)-2-(trifluoromethyl)-3-pyridinol] |

| Compound | IC50 [1] [nM] | IC50 [2] [nM] | IC50 [3] [nM] |
| --- | --- | --- | --- |
| CC(=O)Nc1nc2ccc(-c3ccnc(OCCCc4cccnc4)n3)cc2s1 [Example 1, N-(6-(2-(3-(pyridin-3-yl)propoxy)pyrimidin-4-yl)benzo[d]thiazol-2-yl)acetamide] | 3610 | 1350 |  |
| CC(=O)Nc1nc2ccc(-c3ccnc(N(C)S(=O)(=O)c4ccc(C)cc4)n3)cc2s1 [Example 90, N-(6-(2-(N,4-Dimethylphenylsulfonamido)pyrimidin-4-yl)benzo[d]thiazol-2-yl)acetamide] | 48.8 | 51.6 |  |
| CC(=O)Nc1nc2ccc(-c3ccnc(NC(C)(C)c4ccccc4)n3)cc2s1 [Example 100] | 595 | 698 |  |
| CC(=O)Nc1nc2ccc(-c3cncc(N4CC5CCC(CC5)C4)n3)cc2s1 [Example 300, N-(6-(6-(3-aza-bicyclo[3.2.2]nonan-3-yl)pyrazin-2-yl)benzo[d]thiazol-2-yl)acetamide] |  | 8940 |  |
